Reference: patent US12577206B2 (BRISTOL-MYERS SQUIBB COMPANY, priority 2020, dated 2026)

How the values were obtained:
human FPR1 = biological target: T1, human FPR1 (Homo sapiens, UniProt P21462); assay: FPR1 cyclic adenosine monophosphate (cAMP) assay; type: cell-based; conditions: CHO cells overexpressing human FPR1; forskolin 10 μM; inhibition of cAMP production; HTRF; read-out: hFPR1 cAMP2 EC50
T1 sequence (P21462 1-350): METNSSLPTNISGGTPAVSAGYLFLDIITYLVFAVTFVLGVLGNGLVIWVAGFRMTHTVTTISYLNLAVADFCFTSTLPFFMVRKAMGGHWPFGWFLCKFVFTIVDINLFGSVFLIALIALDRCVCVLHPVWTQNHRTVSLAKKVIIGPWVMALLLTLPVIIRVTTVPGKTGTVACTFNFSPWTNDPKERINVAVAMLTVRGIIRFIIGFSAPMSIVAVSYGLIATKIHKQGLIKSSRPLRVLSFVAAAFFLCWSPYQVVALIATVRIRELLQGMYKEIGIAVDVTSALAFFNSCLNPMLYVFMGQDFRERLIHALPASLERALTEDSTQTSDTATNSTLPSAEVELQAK
Source text: (§1) N-formyl peptide receptors (FPRs) are a family of chemo attractant receptors that facilitate leukocyte response during inflammation. FPRs belong to the seven-transmembrane G protein-coupled receptor superfamily and are linked to inhibitory G-proteins (Gi). Three family members (FPR1, FPR2 and FPR3) have been identified in humans and are predominantly found in myeloid cells with varied distribution and have also been reported in multiple organs and tissues. After agonist binding, the FPRs activate a multitude of physiological pathways, such as intra cellular signaling transduction, Ca^2+ mobilization and transcription. The family interacts with a diverse set of ligands that includes proteins, polypeptides and fatty acid metabolites which activate both pro-inflammatory and pro-resolution downstream responses. FPR2 and FPR1 Cyclic Adenosine Monophosphate (cAMP) Assays were used to measure the in vitro activity of the compounds disclosed in this application.
(§2) FPR2 and FPR1 Cyclic Adenosine Monophosphate (cAMP) Assays. A mixture of forskolin (5 μM final for FPR2 or 10 μM final for FPR1) and IBMX (200 μM final) were added to 384-well Proxiplates (Perkin-Elmer) pre-dotted with test compounds in DMSO (1% final) at final concentrations in the range of 0.020 nM to 100 μM. Chinese Hamster Ovary cells (CHO) overexpressing human FPR1 or human FPR2 receptors were cultured in F-12 (Ham's) medium supplemented with 10% qualified FBS, 250 μg/mL zeocin and 300 μg/mL hygromycin (Life Technologies). Reactions were initiated by adding 2,000 human FPR2 cells per well or 4,000 human FPR1 cells per well in Dulbecco's PBS (with calcium and magnesium) (Life Technologies) supplemented with 0.1% BSA (Perkin-Elmer). The reaction mixtures were incubated for 30 min at rt. The level of intracellular cAMP was determined using the HTRF HiRange cAMP assay reagent kit (Cisbio) according to manufacturer's instruction. Solutions of cryptate conjugated anti-cAMP and d2 flurorophore-labeled cAMP were made in a supplied lysis buffer separately. Upon completion of the reaction, the cells were lysed with equal volume of the d2-cAMP solution and anti-cAMP solution. […] The potency and activity of a compound to inhibit cAMP production was then determined by fitting to a 4-parametric logistic equation from a plot of cAMP level versus compound concentrations.

human FPR2 = biological target: T2, human FPR2 (Homo sapiens, UniProt P25090); assay: FPR2 cyclic adenosine monophosphate (cAMP) assay; type: cell-based; conditions: CHO cells overexpressing human FPR2; forskolin 5 μM; inhibition of cAMP production; HTRF; read-out: hFPR2 cAMP2 EC50
T2 sequence (P25090 1-351): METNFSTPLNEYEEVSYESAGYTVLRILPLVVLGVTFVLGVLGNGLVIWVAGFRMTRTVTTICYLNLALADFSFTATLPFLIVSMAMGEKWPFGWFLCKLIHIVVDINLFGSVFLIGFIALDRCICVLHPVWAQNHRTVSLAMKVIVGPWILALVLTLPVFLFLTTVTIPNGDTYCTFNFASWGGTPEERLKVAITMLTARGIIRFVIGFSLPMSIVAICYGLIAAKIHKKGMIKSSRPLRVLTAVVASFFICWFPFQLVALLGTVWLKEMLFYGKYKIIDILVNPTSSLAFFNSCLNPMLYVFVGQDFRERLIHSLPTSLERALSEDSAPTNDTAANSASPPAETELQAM
Source text: as §1, §2

Compound `COc1cc(F)c(-c2c(NC(=O)c3ccc(OC(F)(F)F)cc3)c(=O)n(-c3ccc(F)cc3)n2C)c(F)c1` [Example 10, N-[5-(2,6-difluoro-4-methoxyphenyl)-2-(4-fluorophenyl)-1-methyl-3-oxo-2,3-dihydro-1H-pyrazol-4-yl]-4-(trifluoromethoxy)benzamide] has an EC50 (human FPR1) of 920 nM and an EC50 (human FPR2) of 14 nM.
`COc1cc(F)c(-c2c(NC(=O)c3ccc(OC(F)F)cc3)c(=O)n(-c3nc(NCCO)ccc3C(F)(F)F)n2C)c(F)c1` [Example 225, N-[5-(2,6-difluoro-4-methoxyphenyl)-2-{6-[(2-hydroxyethyl)amino]-3-(trifluoromethyl)pyridin-2-yl}-1-methyl-3-oxo-2,3-dihydro-1H-pyrazol-4-yl]-4-(difluoromethoxy)benzamide] was tested, and the EC50 (human FPR1) was greater than 10000 nM and the EC50 (human FPR2) was 3 nM.
`COC(=O)c1cccc(-n2c(=O)c(NC(=O)c3ccc(OC(F)F)cc3)c(-c3c(F)cc(OC)cc3F)n2C)c1` [Example 113, methyl 3-[3-(2,6-difluoro-4-methoxyphenyl)-4-[4-(difluoromethoxy)benzamido]-2-methyl-5-oxo-2,5-dihydro-1H-pyrazol-1-yl]benzoate] showed an EC50 (human FPR1) of 2 nM and an EC50 (human FPR2) of 2 nM.
Work on `COc1cc(F)c(-c2c(NC(=O)c3ccc(OC(F)(F)F)cc3)c(=O)n(-c3cccc(F)c3)n2C)c(F)c1` [Example 2, N-[5-(2,6-difluoro-4-methoxyphenyl)-2-(3-fluorophenyl)-1-methyl-3-oxo-2,3-dihydro-1H-pyrazol-4-yl]-4-(trifluoromethoxy)benzamide] yielded an EC50 (human FPR1) of 210 nM and an EC50 (human FPR2) of 5 nM.
`COc1cc(F)c(-c2c(NC(=O)c3ccc(OC(F)F)cc3)c(=O)n(-c3nc(OCCO)ccc3C(F)(F)F)n2C)c(F)c1` [Example 285, N-[5-(2,6-difluoro-4-methoxyphenyl)-2-[6-(2-hydroxyethoxy)-3-(trifluoromethyl)pyridin-2-yl]-1-methyl-3-oxo-2,3-dihydro-1H-pyrazol-4-yl]-4-(difluoromethoxy)benzamide] showed an EC50 (human FPR1) greater than 10000 nM and an EC50 (human FPR2) of 2 nM.
For `COc1cc(F)c(-c2c(NC(=O)c3ccc(OC(F)F)cc3)c(=O)n(-c3ccnc(Cl)c3)n2C)c(F)c1` [Example 116, N-[2-(2-chloropyridin-4-yl)-5-(2,6-difluoro-4-methoxyphenyl)-1-methyl-3-oxo-2,3-dihydro-1H-pyrazol-4-yl]-4-(difluoromethoxy)benzamide], the EC50 (human FPR1) was 2000 nM and the EC50 (human FPR2) was 21 nM.
`COc1cc(F)cc(-n2c(=O)c(NC(=O)c3ccc(OC(F)F)cc3)c(-c3c(F)cc(OC)cc3F)n2C)c1` [Example 132, N-[5-(2,6-difluoro-4-methoxyphenyl)-2-(3-fluoro-5-methoxyphenyl)-1-methyl-3-oxo-2,3-dihydro-1H-pyrazol-4-yl]-4-(difluoromethoxy)benzamide] was tested, and the EC50 (human FPR1) was 83 nM and the EC50 (human FPR2) was 6 nM.
In the case of `COc1cc(F)c(-c2c(NC(=O)c3ccc(OC(F)F)cc3)c(=O)n(-c3cc(C#N)cc(C)n3)n2C)c(F)c1` [Example 328, N-(2-(4-Cyano-6-methylpyridin-2-yl)-5-(2,6-difluoro-4-methoxyphenyl)-1-methyl-3-oxo-2,3-dihydro-1H-pyrazol-4-yl)-4-(difluoromethoxy)benzamide], the EC50 (human FPR1) is reported as 1600 nM and the EC50 (human FPR2) is reported as 15 nM.
`COc1cc(OCCC(C)(C)O)nc(-n2c(=O)c(NC(=O)c3ccc(OC(F)F)cc3)c(-c3c(F)cc(OC)cc3F)n2C)c1` [Example 379, N-(5-(2,6-Difluoro-4-methoxyphenyl)-2-(6-(3-hydroxy-3-methylbutoxy)-4-methoxypyridin-2-yl)-1-methyl-3-oxo-2,3-dihydro-1H-pyrazol-4-yl)-4-(difluoromethoxy)benzamide] was tested, and the EC50 (human FPR1) was greater than 10000 nM and the EC50 (human FPR2) was 7 nM.
With `COc1cc(F)c(-c2c(NC(=O)c3ccc(OC(F)F)cc3)c(=O)n(-c3nc(N[C@H](C)CO)ccc3C(F)(F)F)n2C)c(F)c1` [Example 236, N-[5-(2,6-difluoro-4-methoxyphenyl)-2-(6-{[(2R)-1-hydroxypropan-2-yl]amino}-3-(trifluoromethyl)pyridin-2-yl)-1-methyl-3-oxo-2,3-dihydro-1H-pyrazol-4-yl]-4-(difluoromethoxy)benzamide] the EC50 (human FPR1) was greater than 10000 nM and the EC50 (human FPR2) was 9 nM.
With `COc1cc(F)c(-c2c(NC(=O)c3ccc(OC(F)F)cc3)c(=O)n(-c3nc(Cl)ccc3C(F)(F)F)n2C)c(F)c1` [Example 222, N-{2-[6-chloro-3-(trifluoromethyl)pyridin-2-yl]-5-(2,6-difluoro-4-methoxyphenyl)-1-methyl-3-oxo-2,3-dihydro-1H-pyrazol-4-yl}-4-(difluoromethoxy)benzamide] the EC50 (human FPR1) was greater than 10000 nM and the EC50 (human FPR2) was 5 nM.
`COc1cc(F)c(-c2c(NC(=O)c3ccc(OC(F)F)cc3)c(=O)n(-c3nc(NC(C)(C)C)ccc3C(F)(F)F)n2C)c(F)c1` [Example 265, N-{2-[6-(tert-butylamino)-3-(trifluoromethyl)pyridin-2-yl]-5-(2,6-difluoro-4-methoxyphenyl)-1-methyl-3-oxo-2,3-dihydro-1H-pyrazol-4-yl}-4-(difluoromethoxy)benzamide] showed an EC50 (human FPR1) greater than 10000 nM and an EC50 (human FPR2) of 2 nM.
`COc1cc(OCC2(CO)COC2)nc(-n2c(=O)c(NC(=O)c3ccc(OC(F)F)cc3)c(-c3c(F)cc(OC)cc3F)n2C)c1` [Example 384, N-(5-(2,6-Difluoro-4-methoxyphenyl)-2-(6-((3-(hydroxymethyl)oxetan-3-yl)methoxy)-4-methoxypyridin-2-yl)-1-methyl-3-oxo-2,3-dihydro-1H-pyrazol-4-yl)-4-(difluoromethoxy)benzamide] gave an EC50 (human FPR1) greater than 10000 nM and an EC50 (human FPR2) of 7 nM.
In the case of `COc1cc(F)c(-c2c(NC(=O)c3ccc(Cl)cc3)c(=O)n(-c3ccccc3)n2C)c(F)c1` [Example 9, 4-chloro-N-[5-(2,6-difluoro-4-methoxyphenyl)-1-methyl-3-oxo-2-phenyl-2,3-dihydro-1H-pyrazol-4-yl]benzamide], the EC50 (human FPR1) is reported as greater than 10000 nM and the EC50 (human FPR2) is reported as 11 nM.
With `COc1cc(F)c(-c2c(NC(=O)c3ccc(OC(F)F)cc3)c(=O)n(-c3nc(Cl)ccc3N3CCN(C)CC3)n2C)c(F)c1` [Example 217, N-{2-[6-chloro-3-(4-methylpiperazin-1-yl)pyridin-2-yl]-5-(2,6-difluoro-4-methoxyphenyl)-1-methyl-3-oxo-2,3-dihydro-1H-pyrazol-4-yl}-4-(difluoromethoxy)benzamide] the EC50 (human FPR1) was greater than 10000 nM and the EC50 (human FPR2) was 6 nM.
With `COc1cc(F)c(-c2c(NC(=O)c3ccc(OC(F)F)cc3)c(=O)n(-c3cc(C)cc(Cl)c3)n2C)c(F)c1` [Example 134, N-[2-(3-chloro-5-methylphenyl)-5-(2,6-difluoro-4-methoxyphenyl)-1-methyl-3-oxo-2,3-dihydro-1H-pyrazol-4-yl]-4-(difluoromethoxy)benzamide] the EC50 (human FPR1) was greater than 10000 nM and the EC50 (human FPR2) was 10 nM.
`COc1cc(F)c(-c2c(NC(=O)c3ccc(OC(F)F)cc3)c(=O)n(-c3ccccn3)n2C)c(F)c1` [Example 44, N-[5-(2,6-difluoro-4-methoxyphenyl)-1-methyl-3-oxo-2-(pyridin-2-yl)-2,3-dihydro-1H-pyrazol-4-yl]-4-(difluoromethoxy)benzamide] showed an EC50 (human FPR1) greater than 10000 nM and an EC50 (human FPR2) of 16 nM.
With `COc1cc(F)c(-c2c(NC(=O)c3ccc(OC(F)F)cc3)c(=O)n(-c3cncc(OC)n3)n2C)c(F)c1` [Example 71, N-[5-(2,6-difluoro-4-methoxyphenyl)-2-(6-methoxypyrazin-2-yl)-1-methyl-3-oxo-2,3-dihydro-1H-pyrazol-4-yl]-4-(difluoromethoxy)benzamide] the EC50 (human FPR1) was 2600 nM and the EC50 (human FPR2) was 20 nM.
